According to patent US8741897B2, “Glucocorticoid mimetics, methods of making them, pharmaceutical compositions and uses thereof” (Boehringer Ingelheim Pharmaceuticals Inc., priority 2003, dated 2014):

What was measured:
[1] = system: glucocorticoid receptor function; assay: one or more of the above assays (GR binding and glucocorticoid receptor cell assays: aromatase, IL-6, TAT, MMTV-Luc, IL-8, ICAM-Luc); type: cell-based; details: assay not specified per compound
[2] = target: T1, human glucocorticoid receptor (GR) complex (Homo sapiens, UniProt P04150); assay: Glucocorticoid receptor competitive binding assay (fluorescence polarization, TAMRA-labeled dexamethasone probe); details: compounds of Formula (IA)
T1 construct: made in house; host or cells: insect expression system (baculovirus lysate)
T1 sequence (P04150 1-777): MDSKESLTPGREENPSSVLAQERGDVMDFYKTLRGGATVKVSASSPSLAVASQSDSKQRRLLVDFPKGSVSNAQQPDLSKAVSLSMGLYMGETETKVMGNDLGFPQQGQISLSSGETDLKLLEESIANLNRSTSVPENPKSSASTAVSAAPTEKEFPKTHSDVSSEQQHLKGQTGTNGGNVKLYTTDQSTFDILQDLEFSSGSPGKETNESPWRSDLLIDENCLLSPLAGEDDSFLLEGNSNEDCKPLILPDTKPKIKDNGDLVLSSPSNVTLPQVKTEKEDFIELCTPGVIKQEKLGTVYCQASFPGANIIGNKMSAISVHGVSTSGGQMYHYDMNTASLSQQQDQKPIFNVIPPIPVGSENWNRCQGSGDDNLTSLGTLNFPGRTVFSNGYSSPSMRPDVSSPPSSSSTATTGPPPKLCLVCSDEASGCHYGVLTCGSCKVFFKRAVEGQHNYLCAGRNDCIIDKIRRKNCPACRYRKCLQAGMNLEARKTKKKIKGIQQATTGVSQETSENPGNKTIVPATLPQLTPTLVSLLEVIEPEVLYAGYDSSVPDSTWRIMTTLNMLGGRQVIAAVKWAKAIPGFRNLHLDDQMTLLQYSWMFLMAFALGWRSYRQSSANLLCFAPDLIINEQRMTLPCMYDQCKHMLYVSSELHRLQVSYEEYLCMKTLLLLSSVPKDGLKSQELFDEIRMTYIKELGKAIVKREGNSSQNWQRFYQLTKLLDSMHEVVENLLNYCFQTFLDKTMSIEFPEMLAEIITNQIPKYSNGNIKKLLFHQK
Outline: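 Fluorescence-polarization competition against 15 nM TAMRA-dexamethasone (stock added to the mix) for human GR complex from baculovirus lysate diluted 1:170. Buffer: 10 mM TES, 50 mM KCl, 20 mM Na2MoO4, 1.5 mM EDTA, 0.04% CHAPS, 10% glycerol, 1 mM DTT, pH 7.4. IC50 from 4-parameter logistic fit.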

Row | Structure (SMILES) | activity in the GR binding assay [2] | activity as agonists of the glucocorticoid receptor function in one or more of the above assays [1]
1 | Cc1ccc(C)c(C(C)(C)CC(O)(Cc2ccnc3ccccc23)C(F)(F)F)c1 (stereo not drawn) [4-(2,5-Dimethylphenyl)-1,1,1-trifluoro-4-methyl-2-quinolin-4-ylmethylpentan-2-ol] | potent activity | potent agonists
2 | CC(C)(CC(O)(Cc1ccnc2ccccc12)C(F)(F)F)c1cc(C#N)cc2c1OCC2 (stereo not drawn) [7-(4,4,4-Trifluoro-3-hydroxy-1,1-dimethyl-3-quinolin-4-ylmethylbutyl)-2,3-dihydrobenzofuran-5-carbonitrile] | potent activity | potent agonists
3 | Cc1ccc(C(C)(C)CC(O)(Cc2cc3ccccc3[nH]2)C(F)(F)F)cc1C (stereo not drawn) [4-(3,4-Dimethylphenyl)-1,1,1-trifluoro-2-(1H-indol-2-ylmethyl)-4-methylpentan-2-ol] | potent activity | potent agonists
4 | CC(C)(CC(O)(Cc1cc2ccccc2[nH]1)C(F)(F)F)c1ccccn1 (stereo not drawn) [1,1,1-Trifluoro-2-(1H-indol-2-ylmethyl)-4-methyl-4-pyridin-2-ylpentan-2-ol] | potent activity | potent agonists
5 | Cc1cc(C#N)cc2[nH]c(CC(O)(CC(C)(C)c3ccc(F)cc3O)C(F)(F)F)cc12 (stereo not drawn) [2-[4-(4-Fluoro-2-hydroxyphenyl)-2-hydroxy-4-methyl-2-trifluoromethylpentyl]-4-methyl-1H-indole-6-carbonitrile] | potent activity | potent agonists
6 | Cc1cccc(C(C)(C)CC(O)(Cc2ccnc3ccccc23)C(F)(F)F)c1 (stereo not drawn) [1,1,1-Trifluoro-4-methyl-2-quinolin-4-ylmethyl-4-m-tolylpentan-2-ol] | potent activity | potent agonists
7 | COc1ccc(C)cc1C(C)(C)CC(O)(Cc1cc2ccccc2[nH]1)C(F)(F)F (stereo not drawn) [1,1,1-Trifluoro-2-(1H-indol-2-ylmethyl)-4-(2-methoxy-5-methylphenyl)-4-methylpentan-2-ol] | potent activity | potent agonists
8 | Cc1cc(C#N)cc2[nH]c(CC(O)(CC(C)(C)c3cccc4c3OCO4)C(F)(F)F)cc12 (stereo not drawn) [2-(4-Benzo[1,3]dioxol-4-yl-2-hydroxy-4-methyl-2-trifluoromethylpentyl)-4-methyl-1H-indole-6-carbonitrile] | potent activity | potent agonists
9 | Cc1ccc(F)cc1C(C)(C)CC(O)(Cc1[nH]c2cnccc2c1C)C(F)(F)F (stereo not drawn) [1,1,1-Trifluoro-4-(5-fluoro-2-methylphenyl)-4-methyl-2-(3-methyl-1H-pyrrolo[2,3-c]pyridin-2-ylmethyl)pentan-2-ol] | potent activity | potent agonists
10 | CC(C)(CC(O)(Cc1cc2ccccc2[nH]1)C(F)(F)F)c1ccc(F)cc1 (stereo not drawn) [1,1,1-Trifluoro-4-(4-fluorophenyl)-2-(1H-indol-2-ylmethyl)-4-methylpentan-2-ol] | potent activity | potent agonists
11 | Cc1ccc(F)cc1C(C)(C)CC(O)(Cc1ccnc2ccccc12)C(F)(F)F (stereo not drawn) [1,1,1-Trifluoro-4-(5-fluoro-2-methylphenyl)-4-methyl-2-quinolin-4-ylmethylpentan-2-ol] | potent activity | potent agonists
12 | CC(C)(CC(O)(Cc1ccnc(F)c1)C(F)(F)F)c1cc(F)ccc1O (stereo not drawn) [4-Fluoro-2-[4,4,4-trifluoro-3-(2-fluoropyridin-4-ylmethyl)-3-hydroxy-1,1-dimethylbutyl]phenol] | potent activity | potent agonists
13 | CC(C)(CC(O)(Cc1cc2cc(C#N)ccc2[nH]1)C(F)(F)F)c1cccc(C2OCCO2)c1 (stereo not drawn) [2-[4-(3-[1,3]Dioxolan-2-ylphenyl)-2-hydroxy-4-methyl-2-trifluoromethylpentyl]-1H-indole-5-carbonitrile] | potent activity | potent agonists
14 | CC(C)(CC(O)(Cc1cc2nc(C#N)ccc2[nH]1)C(F)(F)F)c1cc(Cl)cc2c1OCC2 (stereo not drawn) [2-[4-(5-Chloro-2,3-dihydrobenzofuran-7-yl)-2-hydroxy-4-methyl-2-trifluoromethylpentyl]-1H-pyrrolo[3,2-b]pyridine-5-carbonitrile] | potent activity | potent agonists
15 | CC(C)(CC(O)(Cc1cc2ccccc2[nH]1)C(F)(F)F)c1cccc(Br)c1 (stereo not drawn) [4-(3-Bromophenyl)-1,1,1-trifluoro-2-(1H-indol-2-ylmethyl)-4-methylpentan-2-ol] | potent activity | potent agonists
16 | Cc1ccc(F)cc1C(C)(C)CC(O)(Cc1cc2cnccc2s1)C(F)(F)F (stereo not drawn) [1,1,1-Trifluoro-4-(5-fluoro-2-methylphenyl)-4-methyl-2-thieno[3,2-c]pyridin-2-ylmethylpentan-2-ol] | potent activity | potent agonists

The next lines start with results.

Row | activity in the GR binding assay [2] | Structure (SMILES) | activity as agonists of the glucocorticoid receptor function in one or more of the above assays [1]
17 | potent activity | COc1ccc(F)cc1C(C)(C)CC(O)(Cc1cc2nc(C#N)ccc2[nH]1)C(F)(F)F (stereo not drawn) [2-[4-(5-Fluoro-2-methoxyphenyl)-2-hydroxy-4-methyl-2-trifluoromethylpentyl]-1H-pyrrolo[3,2-b]pyridine-5-carbonitrile] | potent agonists
18 | potent activity | COc1ccc(F)cc1C(C)(C)CC(O)(Cc1cc2cncnc2[nH]1)C(F)(F)F (stereo not drawn) [1,1,1-Trifluoro-4-(5-fluoro-2-methoxyphenyl)-4-methyl-2-(7H-pyrrolo[2,3-d]pyrimidin-6-ylmethyl)pentan-2-ol] | potent agonists
19 | potent activity | COc1ccc(F)cc1C(C)(C)CC(O)(Cc1cc2c(C)nc(C)cc2[nH]1)C(F)(F)F (stereo not drawn) [2-(4,6-Dimethyl-1H-pyrrolo[3,2-c]pyridin-2-ylmethyl)-1,1,1-trifluoro-4-(5-fluoro-2-methoxyphenyl)-4-methylpentan-2-ol] | potent agonists
20 | potent activity | COc1ccc(F)cc1C(C)(C)CC(O)(Cc1cc2c(C)nccc2[nH]1)C(F)(F)F (stereo not drawn) [1,1,1-Trifluoro-4-(5-fluoro-2-methoxyphenyl)-4-methyl-2-(4-methyl-1H pyrrolo[3,2-c]pyridin-2-ylmethyl)pentan-2-ol] | potent agonists
21 | potent activity | COc1ccc(F)cc1C(C)(C)CC(O)(Cc1cc2cc(C(N)=O)ccc2[nH]1)C(F)(F)F (stereo not drawn) [2-[4-(5-Fluoro-2-methoxyphenyl)-2-hydroxy-4-methyl-2-trifluoromethylpentyl]-1H-indole-5-carboxylic acid amide] | potent agonists
22 | potent activity | COc1cc2cc(CC(O)(CC(C)(C)c3cc(F)ccc3OC)C(F)(F)F)[nH]c2cn1 (stereo not drawn) [1,1,1-Trifluoro-4-(5-fluoro-2-methoxyphenyl)-2-(5-methoxy-1H-pyrrolo[2,3-c]pyridin-2-ylmethyl)-4-methylpentan-2-ol] | potent agonists
23 | potent activity | COc1ccc(F)cc1C(C)(C)CC(O)(Cc1cc2cnc(C)cc2[nH]1)C(F)(F)F (stereo not drawn) [1,1,1-Trifluoro-4-(5-fluoro-2-methoxyphenyl)-4-methyl-2-(6-methyl-1H-pyrrolo[3,2-c]pyridin-2-ylmethyl)pentan-2-ol] | potent agonists
24 | potent activity | COc1ccc(OC)c(C(C)(C)CC(O)(Cc2cc3ccncc3[nH]2)C(F)(F)F)c1 (stereo not drawn) [4-(2,5-Dimethoxyphenyl)-1,1,1-trifluoro-4-methyl-2-(1H-pyrrolo[2,3-c]pyridin-2-ylmethyl)pentan-2-ol] | potent agonists
